Experimental data from patent publication US10857085B2, “Preparations comprising carnosines” (Symrise AG, priority 2015, dated 2020).

How the values were obtained:
human fibroblasts [1] = assay: DNA content of human fibroblasts (Desaulniers method); assay type: cell-based; settings: 0.001 % w/v; for DNA after 6 d: compared to blank sample = 100, after 6 d; for DNA after 3 d: compared to blank sample = 100, after 3 d
Excerpt: (§1) The enzyme glucose-6-phosphate dehydrogenase (G6PDH) catalyzes the first step of the so-called “pentose pathway”, in which an important DNA component, namely deoxyribose, is formed. Glucose 6-phosphate (G6P) is thereby converted into 6-phosphogluconate (6PG) by means of G6PDH. At the same time, the coenzyme NADP required thereby is reduced to NADPH2, which in turn is able to catalyze a large number of other biological reactions such as, for example, the recycling of glutathione or lipid synthesis. Reduced glutathione protects many enzymes which have SH groups and cells against oxidative stress, such as, for example, the action of UV. The G6PDH content is thus an important parameter for cell protection and skin renewal. G6PDH activity was determined in vitro on human fibroblasts by the enzymatic method of Okada, while the DNA content was determined by the Desaulniers method. The results of 3 series of measurements with triple determination are given in %-rel. compared to a blank sample.

[2] = test system: human fibroblasts and human keratinocytes; assay: Inhibition of apoptosis induced by growth factor deficiency (cell count, BrdU ELISA of cytoplasmic DNA fragments); assay type: cell-based; settings: 0.001 % w/v, in comparison to the control = 100; for Content of DNA fragments: BrdU in cytoplasmic DNA fragments, based on a million cells
Excerpt: Apoptosis, unlike necrosis, is the natural purposive cell death of specific undesired or damaged cells. It is an active process of the cells (suicide on command). In the case of skin ageing especially, a deficiency of growth factors in the skin leads to induced apoptosis of the skin cells. In the cells affected by apoptosis, the nuclear DNA is degraded by the specific enzyme endonuclease and the DNA fragments are passed into the cytoplasm.
The ability of carnosines to prevent apoptosis induced by a deficiency of growth factors in human skin cells was studied. These tests were carried out in vitro on human fibroblasts and human keratinocytes. The human cells were cultivated in a nutrient medium (DMEM=Dulbecco minimum essential medium from Life Technologie Sarl) with 10% fetal calf serum (from Dutcher). Bromodeoxyuridine (BrdU) was added to the nutrient medium; it was incorporated into the DNA and later served for detection of the DNA fragments in the cytoplasm. After an incubation period of two days, the nutrient medium was replaced by nutrient medium (DMEM) without fetal calf serum. The active substance to be tested was added. For comparison, a cell sample without active substance to be tested was incubated.
After a further incubation period of one or two days at 37° C., the cells were recovered by trypsinization according to the method of Dunnebacke and Zitcer described in: Cell and tissue culture, Ed.: J. Paul, Churchill Livingstone, 1975, p. 226. After the trypsinization, the cells were centrifuged and counted. Then the content of BrdU in the DNA fragments from the cytoplasm was determined by means of the ELISA test (ELISA kit from Roche). The content of BrdU is a measure of the DNA fragments which have passed from the nucleus, the cell core, into the cytoplasm. The results were based on a million cells and given in percent in comparison to the control.

human fibroblasts [3] = assay: Synthesis of dermal macromolecules (GAG) in collagen gel containing human fibroblasts; assay type: cell-based; settings: 0.5% by weight FCS + 0.01% by weight substance; for Density, 14 days: relative density of collagen gel (0=clear or white, 1=black)
Excerpt: The dermis is composed of cells (fibroblasts and mast cells), tissue components (collagen and elastin) and so-called ground substances. These ground substances include, for example, glycosaminoglycan (GAG), hyaluronic acid, chondroitin sulfate, dermatan sulfate and glycoproteins. As a result of skin ageing, the intermolecular strength and elasticity of the dermis, and thus the tautness of the skin, is reduced. Likewise, the number of skin cells present, in particular fibroblasts, is reduced as the skin ages. The collagen fibers are fragmented over time, and the proportion of insoluble to soluble collagen increases. The fine dermal elastic fibers become coarse and are destroyed. The synthesis of GAG (glycosaminoglycan) is reduced. All these processes contribute to skin ageing and the manifestations thereof, such as wrinkles and lack of tautness of the skin.
The measuring method is based on staining macromolecules in a culture of human fibroblasts which, with type I collagen, forms a collagen gel or collagen lattice fibers. Certain regions of those fibers are quantified by means of staining reagents for the proportion of the mentioned macromolecules.
For that purpose, a suspension of human fibroblasts was mixed with a solution of type I collagen (1-2 mg/ml). This mixture was incubated in a defined nutrient medium (DMEM=Dulbecco minimum essential medium, Life Technologie Sarl) comprising 0.5 or 2% by weight fetal calf serum (FCS) for 14 days at 37° C. in a 5% CO2 atmosphere in Petri dishes (5 ml per dish) with the addition of different concentrations of the plant extracts to be tested.
The kinetics of the collagen gel […] was determined 2 to 3 times per week by measuring two perpendicular diameters on each collagen gel using a microscope with an image analysis system. The size of the area is shown in cm^2 in Table 8. After incubation for 14 days, the density of the collagen gel was determined by image analysis with a light source of visible light, by comparatively analyzing different gray stages. This is a relative determination of the density (0=clear or white and 1=black), which cannot be given a unit.
After an incubation period of 7 and 14 days, biopsies (tissue samples) were taken and histological sections of the collagen gel containing human fibroblasts were obtained. The synthesis of macromolecules was analyzed and quantified by the staining of glycosaminoglycan with PAS Alcian blue, for example from SIGMA, by the periodic acid-Schiff method (PAS) described in: Mowry R W, Anal. NY Adad. Sci. 106 Art 2, 402, 1963. The stimulation of the synthesis of macromolecules was evaluated in the immediate vicinity of fibroblasts. This zone is also referred to as the “perifibroblast area”.
The “perifibroblast” secretion, or the secretion of fibroblasts into the periphery, was quantified by an image analyzer by means of a microscope. Reactive structures in the “perifibroblast area” were detected, and the different gray stages were comparatively determined. The values of the gray stages were thereby subdivided from 0=white to 255=black. These parameters are directly proportional to the intensity of the synthesis of macromolecules and thus to the GAG content of the fibroblasts.
The results of the values of these parameters are shown in Table 3 below and are to be regarded directly as representative values for the synthesis activity of the fibroblasts. The content of GAGs is described as a relative value of the gray stage.

type I collagen = assay: Inhibition of the non-enzymatic glycation of collagen (Schiff's bases, fluorescence 430 nm); assay type: biochemical; settings: type I collagen with glucose, 21 days at 45° C.; control with glucose 100, control without glucose 46
Excerpt: Glycation is a non-enzymatic reaction of glucose or other sugars with proteins to form glycoproteins. This reaction leads to unintentional changes in the collagen and elastin and thus to changes in the extracellular matrix. The function of the collagen and the extracellular matrix is disrupted. The prevention according to the invention of glycation leads to a reduction in the non-enzymatic change in collagen and elastin and thus to the prevention of a reduced function of the extracellular matrix.
The suspensions were then centrifuged and the content of Schiff's bases in the supernatant liquid was determined by fluorescence measurement at 430 nm. The results are again based on the control as standards (without extract and without glucose).

[4] = test system: glucose-6-phosphate dehydrogenase (G6PDH); assay: G6PDH activity in vitro on human fibroblasts (enzymatic method of Okada); assay type: cell-based; settings: 0.001 % w/v; for G6PDH after 3 d: compared to blank sample = 100, after 3 d; for G6PDH after 6 d: compared to blank sample = 100, after 6 d
Excerpt: as §1

pancreas elastase = pancreas elastase (Sus scrofa, UniProt P00772); assay: Inhibition of elastase activity (chromogenic labelled elastin substrate, OD 410 nm); assay type: biochemical; settings: 0.3% by weight; 30 minutes at room temperature; relative to control = 0%
Procedure: Elastase is a protease which is secreted by the fibroblasts under inflammatory conditions and is jointly responsible for the degradation of dermal macromolecules, such as, for example, collagen and elastin, and thus for skin ageing.
In order to determine the effectiveness of the plant extract in inhibiting the release of elastase, pancreas elastase (a serine protease) was studied and, as substrate, elastin was labeled with a chromogenic synthetic substrate. The system was incubated with the active ingredients for 30 minutes at room temperature and then, after centrifugation, the optical density of the dye at 410 nm was determined. The amount of extracts used was 0.3% by weight. The results were given relative to a control as standard (=0%); al-antitrypsin was used as the standard.

Chain of pancreas elastase (P00772 27-266): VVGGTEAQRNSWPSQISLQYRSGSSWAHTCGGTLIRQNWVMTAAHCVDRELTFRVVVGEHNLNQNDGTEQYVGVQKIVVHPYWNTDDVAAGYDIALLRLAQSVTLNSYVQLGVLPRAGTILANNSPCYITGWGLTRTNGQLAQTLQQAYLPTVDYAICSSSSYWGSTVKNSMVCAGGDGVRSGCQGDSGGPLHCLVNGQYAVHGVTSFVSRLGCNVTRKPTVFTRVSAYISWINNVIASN

G6PDH after 3 d [4] [%-rel.] | G6PDH after 6 d [4] [%-rel.] | Elastase inhibition, Inhibition [%] (pancreas elastase) | SMILES | DNA after 6 d (human fibroblasts [1]) [%-rel.] | Content of DNA fragments [2] [%] | Density, 14 days (human fibroblasts [3]; 14 days) | Inhibition of the glycation of collagen, Inhibition [%] (type I collagen) | DNA after 3 d (human fibroblasts [1]) [%-rel.] | Cell count ([2]; medium without fetal calf serum) [%] | Area, 7 days (human fibroblasts [3]; collagen gel area, 7 days) [cm2] | Area, 14 days (human fibroblasts [3]; collagen gel area, 14 days) [cm2] | GAG content, 7 days (human fibroblasts [3]; relative value of the gray stage (0=white to 255=black), perifibroblast area, 7 days) | GAG content, 14 days (human fibroblasts [3]; relative value of the gray stage (0=white to 255=black), perifibroblast area, 14 days)
– | – | – | NCCC(=O)N[C@@H](Cc1cnc[nH]1)C(=O)O [L-Carnosine] | 120 | 85 | 0.25 | 68 | – | – | – | – | – | –
104 | 109 | 28 | Cl.NCCC(=O)NCCc1cnc[nH]1 [Carnicine*HCl] | 118 | 88 | 0.25 | 65 | 106 | 118 | 9.9 | 5.8 | 11.8 | 13.3
89 | 85 | – | CCCCC(CC)COC(=O)C(C#N)=C(c1ccccc1)c1ccccc1 (stereo not drawn) [Octocrinyl, reference compound] | 90 | – | – | – | 95 | – | – | – | – | –
